From PubChem BioAssay AID1963854 (Molecular Pharmacology Branch, DTP, NCI, 2024)

System: 186277-243-T-J2-PDC complex spheroid viability
Assay: Anticancer human tumor 186277-243-T-J2-PDC patient-derived colon adenocarcinoma cell line growth inhibition [POLQ]
Conditions: for IC50: curve of first compound; for viability, T/C: stronger effect = lower value; active means viability on the fitted dose curve at most 10% of control; inactive means the rest
In short: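 PDC + HUVEC + MSC complex spheroids; POLQ inhibitors ± partner drugs; top conc. at/near clinical Cmax, else 10 microM (SN-38 1 microM), half-log dilutions; 37 degrees C, 5% CO2.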

[1] = second compound 0.0316 µM, first compound 0.0316 µM
[2] = second compound 0.0316 µM, first compound 0.1 µM
[3] = second compound 0.0316 µM, first compound 0.316 µM
[4] = second compound 0.0316 µM, first compound 1 µM
[5] = second compound 0.1 µM, first compound 0.0316 µM
[6] = second compound 0.1 µM, first compound 0.1 µM
[7] = second compound 0.1 µM, first compound 0.316 µM
[8] = second compound 0.1 µM, first compound 1 µM
[9] = second compound 0.316 µM, first compound 0.0316 µM
[10] = second compound 0.316 µM, first compound 0.1 µM
[11] = second compound 0.316 µM, first compound 0.316 µM
[12] = second compound 0.316 µM, first compound 1 µM
[13] = second compound 1 µM, first compound 0.0316 µM
[14] = second compound 1 µM, first compound 0.1 µM
[15] = second compound 1 µM, first compound 0.316 µM
[16] = second compound 1 µM, first compound 1 µM
[17] = second compound 3.16 µM, first compound 0.0316 µM
[18] = second compound 3.16 µM, first compound 0.1 µM
[19] = second compound 3.16 µM, first compound 0.316 µM
[20] = second compound 3.16 µM, first compound 1 µM
[21] = second compound 10 µM, first compound 0.0316 µM
[22] = second compound 10 µM, first compound 0.1 µM
[23] = second compound 10 µM, first compound 0.316 µM
[24] = second compound 10 µM, first compound 1 µM
[25] = second compound 0.0316 µM, first compound 3.16 µM
[26] = second compound 0.0316 µM, first compound 10 µM
[27] = second compound 0.1 µM, first compound 3.16 µM
[28] = second compound 0.1 µM, first compound 10 µM
[29] = second compound 0.316 µM, first compound 3.16 µM
[30] = second compound 0.316 µM, first compound 10 µM
[31] = second compound 1 µM, first compound 3.16 µM
[32] = second compound 1 µM, first compound 10 µM
[33] = second compound 3.16 µM, first compound 3.16 µM
[34] = second compound 3.16 µM, first compound 10 µM
[35] = second compound 10 µM, first compound 3.16 µM
[36] = second compound 10 µM, first compound 10 µM
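Further: spheroids exposed to compounds for seven days.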
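Wherever viability, T/C is given: 100% = DMSO vehicle control viability.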

COc1cccc(OCCCN)c1-c1cc(Nc2cnc(C#N)cn2)n[nH]1 + Cc1cccc(N(C)C(=O)C2C(O)CCN2c2nc(C)cc(C(F)(F)F)c2C#N)c1
< 3.16 nM: IC50 (second compound 0.0316 µM) | IC50 (second compound 0.1 µM) | IC50 (second compound 0.316 µM) | IC50 (second compound 1 µM) | IC50 (second compound 3.16 µM) | IC50 (second compound 10 µM)
inactive: viability, T/C (second compound 0.0316 µM, first compound 0.00316 µM) 38.4% | viability, T/C (second compound 0.0316 µM, first compound 0.01 µM) 14.9% | viability, T/C [1] 11.1% | viability, T/C [2] 10% | viability, T/C (second compound 0.1 µM, first compound 0.00316 µM) 33.4% | viability, T/C (second compound 0.1 µM, first compound 0.01 µM) 15.7% | viability, T/C [5] 10.9% | viability, T/C (second compound 0.316 µM, first compound 0.00316 µM) 30.1% | viability, T/C (second compound 0.316 µM, first compound 0.01 µM) 12% | viability, T/C (second compound 1 µM, first compound 0.00316 µM) 30.9% | viability, T/C (second compound 1 µM, first compound 0.01 µM) 11.5% | viability, T/C (second compound 3.16 µM, first compound 0.00316 µM) 34.2% | viability, T/C (second compound 3.16 µM, first compound 0.01 µM) 11.5% | viability, T/C (second compound 10 µM, first compound 0.00316 µM) 17.9%
active: viability, T/C [3] 9.49% | viability, T/C [4] 10.2% | viability, T/C [6] 9.64% | viability, T/C [7] 10.2% | viability, T/C [8] 9.26% | viability, T/C [9] 10.7% | viability, T/C [10] 10.1% | viability, T/C [11] 9.4% | viability, T/C [12] 8.53% | viability, T/C [13] 9.4% | viability, T/C [14] 9.54% | viability, T/C [15] 9.34% | viability, T/C [16] 9.69% | viability, T/C [17] 9.08% | viability, T/C [18] 9.36% | viability, T/C [19] 9.81% | viability, T/C [20] 9.01% | viability, T/C (second compound 10 µM, first compound 0.01 µM) 9.92% | viability, T/C [21] 8.74% | viability, T/C [22] 8.3% | viability, T/C [23] 9.78% | viability, T/C [24] 9.02%

CC(C)n1c(=O)n(C)c2cnc3cc(F)c(-c4ccc(OCCCN5CCCCC5)nc4)cc3c21 + Cc1cccc(N(C)C(=O)C2C(O)CCN2c2nc(C)cc(C(F)(F)F)c2C#N)c1
inactive: viability, T/C [1] 101% | viability, T/C [2] 97.7% | viability, T/C [3] 94.8% | viability, T/C [4] 90.8% | viability, T/C [25] 119% | viability, T/C [26] 100% | viability, T/C [5] 88.8% | viability, T/C [6] 93.2% | viability, T/C [7] 103% | viability, T/C [8] 92.3% | viability, T/C [27] 98% | viability, T/C [28] 88.2% | viability, T/C [9] 90.6% | viability, T/C [10] 95.6% | viability, T/C [11] 94% | viability, T/C [12] 87.6% | viability, T/C [29] 119% | viability, T/C [30] 93.9% | viability, T/C [13] 104% | viability, T/C [14] 107% | viability, T/C [15] 99.6% | viability, T/C [16] 102% | viability, T/C [31] 102% | viability, T/C [32] 84.5% | viability, T/C [17] 84.3% | viability, T/C [18] 86.8% | viability, T/C [19] 99.4% | viability, T/C [20] 96% | viability, T/C [33] 107% | viability, T/C [34] 97.2% | viability, T/C [21] 112% | viability, T/C [22] 94.6% | viability, T/C [23] 103% | viability, T/C [24] 114% | viability, T/C [35] 94.9% | viability, T/C [36] 82.7%
> 10000 nM: IC50 (second compound 0.0316 µM) | IC50 (second compound 0.1 µM) | IC50 (second compound 0.316 µM) | IC50 (second compound 1 µM) | IC50 (second compound 3.16 µM) | IC50 (second compound 10 µM)

COc1cc(C2c3cc4c(cc3C(OC3OC5COC(C)OC5C(O)C3O)C3COC(=O)C23)OCO4)cc(OC)c1O (stereo not drawn) + Cc1cccc(N(C)C(=O)C2C(O)CCN2c2nc(C)cc(C(F)(F)F)c2C#N)c1
890 nM: IC50 (second compound 0.1 µM)
inactive: viability, T/C [1] 102% | viability, T/C [2] 104% | viability, T/C [3] 79.3% | viability, T/C [4] 48.8% | viability, T/C [25] 30.6% | viability, T/C [26] 14.3% | viability, T/C [5] 106% | viability, T/C [6] 117% | viability, T/C [7] 76% | viability, T/C [8] 47.5% | viability, T/C [27] 29.2% | viability, T/C [28] 14.4% | viability, T/C [9] 105% | viability, T/C [10] 99.2% | viability, T/C [11] 80.5% | viability, T/C [12] 48.4% | viability, T/C [29] 31.7% | viability, T/C [30] 14.5% | viability, T/C [13] 93.8% | viability, T/C [14] 115% | viability, T/C [15] 80.7% | viability, T/C [16] 46% | viability, T/C [31] 36.1% | viability, T/C [32] 12.7% | viability, T/C [17] 105% | viability, T/C [18] 124% | viability, T/C [19] 66.7% | viability, T/C [20] 46.6% | viability, T/C [33] 27.2% | viability, T/C [34] 13.4% | viability, T/C [21] 99.6% | viability, T/C [22] 106% | viability, T/C [23] 57.2% | viability, T/C [24] 37.6% | viability, T/C [35] 23.3% | viability, T/C [36] 12.2%
976 nM: IC50 (second compound 1 µM)
749 nM: IC50 (second compound 3.16 µM)
1070 nM: IC50 (second compound 0.316 µM)
528 nM: IC50 (second compound 10 µM)
1030 nM: IC50 (second compound 0.0316 µM)

CNCc1ccc(-c2[nH]c3cc(F)cc4c3c2CCNC4=O)cc1 + Cc1cccc(N(C)C(=O)C2C(O)CCN2c2nc(C)cc(C(F)(F)F)c2C#N)c1
> 10000 nM: IC50 (second compound 0.0316 µM) | IC50 (second compound 0.1 µM) | IC50 (second compound 0.316 µM) | IC50 (second compound 1 µM) | IC50 (second compound 3.16 µM) | IC50 (second compound 10 µM)
inactive: viability, T/C [1] 105% | viability, T/C [2] 97.5% | viability, T/C [3] 104% | viability, T/C [4] 102% | viability, T/C [25] 102% | viability, T/C [26] 97.5% | viability, T/C [5] 81.2% | viability, T/C [6] 98.9% | viability, T/C [7] 107% | viability, T/C [8] 108% | viability, T/C [27] 115% | viability, T/C [28] 91.1% | viability, T/C [9] 103% | viability, T/C [10] 109% | viability, T/C [11] 94.8% | viability, T/C [12] 105% | viability, T/C [29] 93.8% | viability, T/C [30] 91.7% | viability, T/C [13] 102% | viability, T/C [14] 105% | viability, T/C [15] 95.2% | viability, T/C [16] 95% | viability, T/C [31] 105% | viability, T/C [32] 76.9% | viability, T/C [17] 100% | viability, T/C [18] 108% | viability, T/C [19] 107% | viability, T/C [20] 105% | viability, T/C [33] 115% | viability, T/C [34] 78.4% | viability, T/C [21] 106% | viability, T/C [22] 98.4% | viability, T/C [23] 107% | viability, T/C [24] 90.1% | viability, T/C [35] 94.2% | viability, T/C [36] 69.4%
